# ChEMBL document CHEMBL1129339, “Mapping the aspartic acid binding site of Escherichia coli asparagine synthetase B using substrate analogs” (J Med Chem, 1996)
# How the values were obtained:
# [1] = tested on: Asparagine synthetase B (Escherichia coli); assay: Noncompetitive Inhibition constant of Asparagine synthetase of Glutamine-Dependent Synthetase Activity using ATP as substrate
# [2] = tested on: Asparagine synthetase B (Escherichia coli); assay: Noncompetitive Inhibition constant of Asparagine synthetase of Glutamine-Dependent Synthetase Activity using aspartate as substrate
# [3] = tested on: Asparagine synthetase B (Escherichia coli); assay: Noncompetitive Inhibition constant of Asparagine synthetase of Glutamine-Dependent Synthetase Activity using glutamine as substrate
# [4] = tested on: Asparagine synthetase B (Escherichia coli); assay: Non competitive Inhibition constant of Asparagine synthetase of Glutamine-Dependent Synthetase Activity using glutamine as substrate
# [5] = tested on: Asparagine synthetase B (Escherichia coli); assay: Competitive Inhibition constant of Asparagine synthetase of Glutamine-Dependent Synthetase Activity using aspartate as substrate
# [6] = tested on: Asparagine synthetase B (Escherichia coli); assay: Non competitive Inhibition constant of Asparagine synthetase of Glutamine-Dependent Synthetase Activity using ATP as substrate
# [7] = tested on: Asparagine synthetase B (Escherichia coli); assay: Uncompetitive Inhibition constant of Asparagine synthetase of Glutamine-Dependent Synthetase Activity using glutamine as substrate
Compound,Kii [1] [mM],Kis [1] [mM],Kii [2] [mM],Kis [2] [mM],Kii [3] [mM],Kis [3] [mM],Kii [4] [mM],Kis [4] [mM],Kis [5] [mM],Kii [6] [mM],Kis [6] [mM],Kii [7] [mM]
C[C@H](C(=O)O)[C@H](N)C(=O)O,15,8,> 50,18,16.5,93,,,,,,
"C[C@@H](C(=O)O)[C@H](N)C(=O)O (single isomer, unassigned)",,,,,,,1.71,1.62,0.25,3.28,0.45,
O=C(O)[C@H]1NCC[C@H]1C(=O)O,4.8,2.65,,,,,,,2.65,,,2.57
